Experiments:
GCK = target: T1, GCK (Homo sapiens, UniProt Q12851); experiment: KiNativ live cell profiling, GCK; type: cell-based, H. sapiens; settings: MOLT-4 CRBN−/− cells, 1 μM, 5 h
T1 construct: host or cells: CRBN-/- MOLT-4
T1 sequence (Q12851 1-820): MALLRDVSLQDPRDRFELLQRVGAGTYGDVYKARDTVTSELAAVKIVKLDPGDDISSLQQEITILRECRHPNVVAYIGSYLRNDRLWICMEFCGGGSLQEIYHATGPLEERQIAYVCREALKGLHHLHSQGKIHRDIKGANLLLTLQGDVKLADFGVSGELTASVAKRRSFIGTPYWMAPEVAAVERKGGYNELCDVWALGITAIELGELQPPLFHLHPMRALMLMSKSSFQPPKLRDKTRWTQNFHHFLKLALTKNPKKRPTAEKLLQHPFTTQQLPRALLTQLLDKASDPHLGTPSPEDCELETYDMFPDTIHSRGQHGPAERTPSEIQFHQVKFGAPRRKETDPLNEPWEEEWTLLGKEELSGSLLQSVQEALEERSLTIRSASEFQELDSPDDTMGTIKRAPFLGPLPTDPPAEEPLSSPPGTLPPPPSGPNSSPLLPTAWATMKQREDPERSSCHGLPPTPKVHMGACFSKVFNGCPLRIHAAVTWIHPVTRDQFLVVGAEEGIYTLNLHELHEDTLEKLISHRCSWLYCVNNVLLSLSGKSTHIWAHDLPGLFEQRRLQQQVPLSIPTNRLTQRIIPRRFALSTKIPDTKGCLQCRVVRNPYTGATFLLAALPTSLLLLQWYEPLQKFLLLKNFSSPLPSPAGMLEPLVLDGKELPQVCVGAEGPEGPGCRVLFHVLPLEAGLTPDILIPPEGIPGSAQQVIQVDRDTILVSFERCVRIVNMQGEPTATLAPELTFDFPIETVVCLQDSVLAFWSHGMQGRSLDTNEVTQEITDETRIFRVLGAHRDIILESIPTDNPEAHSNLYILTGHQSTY
Method: One of the key features of degraders is their potential for a sub-stoichiometric mode of action (Paiva and Crews, Curr Opin Chem Biol 50:111-119 (2019)). […] While this has been confirmed in a limited number of individual studies, the generalizability of this hypothesis was tested across the kinome. […] The focus of this test was to establish whether cellular target engagement (target occupancy) correlates with degrader efficacy. […] KiNativ™ is an activity based chemoproteomic assay, which measures the ability of a small molecule of interest to block the binding of a covalent ATP-mimetic probe. […] Furthermore, the proportion of degraded kinases with detectable binding varied dramatically from compound to compound, and was unrelated to cellular permeability (FIG. 3F).
CRBN^−/− MOLT-4 cells were plated in fresh media (RPMI-1640+10% FBS) in 15 cm plates and treated for 5 hours with candidate compounds. To harvest cells, plates were harvested using detachment using CellStripper™ detachment solution (Corning®) and washed 2× with cold phosphate-buffered saline (abbreviated PBS), followed by centrifugation and snap-freezing of cell pellets in liquid nitrogen. The remainder of the KiNativ® profiling experiment was performed by ActivX® Biosciences (La Jolla. CA).

[1] = target: T2, CRBN-degrader-kinase ternary complexes (Homo sapiens, UniProt Q96SW2); experiment: FLAG-CRBN affinity purification TMT LC-MS3 (AP-MS) of degrader-mediated ternary complexes; type: cell-based, H. sapiens; settings: for enriched proteins in the CRBN AP-MS: relative to SB1-G-187 and WH-10417-099
T2 construct: host or cells: HEK293T
Description: An important aspect of protein degraders is the multifaceted nature of the molecule that enables heightened target selectivity due to differences in complementarity of target-ligase interactions, which is not a consideration when assessing selectivity of inhibitors for target engagement (Famaby el al., Nat Chem Biol 15:672-680 (2019)). For compound-induced degradation to be successful, productive ternary complex formation (ligase-degrader-POI) is necessary for proximity-mediated ubiquitin transfer onto the POI. […] Cellular affinity purification was performed, followed by mass spectrometry (AP-MS) of FLAG-tagged CRBN transiently overexpressed in HEK293T cells. FLAG-CRBN expressing cells were co-treated with proteosome inhibitor and 1 μM of each degrader for 5 h, and the degree of kinase target enrichment was compared to kinase degradation hits in matched global proteomics analysis experiments (FIG. 3A, FIG. 3C). The proteins identified as complexed with CRBN were enriched for kinases as well as their known binding partners such as Cyclin B (CDK1) and RASSF1 (STK4), consistent with the binding profiles of the assayed degraders. All kinases identified by AP-MS except CSNK1A1 were also detected in the HEK293T whole proteome degrader profiling experiment, allowing us to interrogate trends across 52 unique kinases (FIG. 4A; FIG. 11B). Limitations of this experiment include the potential loss of transient or weakly bound complexes in the enrichment and subsequent wash steps, the inherent noise associated with AP-MS relative to global proteomics analysis (Dunham et al., Proteomics 12:1576-1590 (2012): Yugandhar et al., Comput Struct Biotechnol J 17:805-811 (2019)) and the short time point of the experiment, which precludes detection of degradation events with slow kinetics. Therefore, the relationship between the formation of abundant, stable ternary complexes and rapid degradation was assessed.
HEK293T cells were seeded into 15 cm plates and cells were transiently transfected with 8 μg of pNTM-FLAG-CRBN construct using lipofectamine 2000. […] Cells were harvested with non-enzymatic CellStripper™ Dissociation reagent (Corning®), followed by three washes with cold PBS and snap freezing. Cell lysis was performed by the addition of IP lysis buffer (50 mM Tris. pH 7.5, 0.5% NP-40, 1 mM EDTA, 10% glycerol and 200 mM NaCl) containing protease inhibitor cocktail (cOmplete™) and relevant co-treatment (above), followed by end-over-end rotation at 4° C. for 3 hours. Lysate was clarified by centrifugation and salt concentration diluted to 100 mM NaCl with the addition of 0 mM NaCl lysis buffer (containing protease inhibitors and 1 μM of relevant compounds to retain temary complexes throughout binding). Lysate was added to 20 μL of pre-washed anti-FLAG M2 magnetic bead slurry (MilliporeSigma) and incubated with end-over-end rotation at 4° C. overnight. Beads were washed six times with 100 mM NaCl lysis buffer containing 1 μM of relevant degraders to retain ternary complexes throughout wash steps.
Proteins were eluted in a two-step elution with the addition of 0.1 M Glycine hydrochloride (MilliporeSigma) and elution buffered to pH 8.5 using 200 mM Tris buffer, pH 8.5. […] Protein pellets were resuspended in 50 μL of EPPs pH 8 and first digested with 2 μg LysC for 12 h at room temperature (RT), followed by 1 μg of trypsin for 6 hours at 37° C.

[2] = HEK293T, 1 μM, 5 h, proteasome inhibitor

T2 sequence (Q96SW2 whole entry): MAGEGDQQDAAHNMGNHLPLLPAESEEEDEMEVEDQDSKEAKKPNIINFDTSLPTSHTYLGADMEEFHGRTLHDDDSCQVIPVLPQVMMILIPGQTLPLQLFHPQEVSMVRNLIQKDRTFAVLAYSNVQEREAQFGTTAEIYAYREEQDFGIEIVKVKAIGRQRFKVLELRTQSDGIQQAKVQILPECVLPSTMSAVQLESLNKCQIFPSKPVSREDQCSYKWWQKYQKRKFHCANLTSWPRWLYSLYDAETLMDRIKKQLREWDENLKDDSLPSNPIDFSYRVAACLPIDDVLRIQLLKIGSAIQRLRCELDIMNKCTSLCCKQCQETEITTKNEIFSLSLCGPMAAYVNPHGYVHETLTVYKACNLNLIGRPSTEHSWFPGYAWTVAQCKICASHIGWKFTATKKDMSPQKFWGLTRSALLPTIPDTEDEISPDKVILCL
T2 sequence (Q16531 whole entry partner): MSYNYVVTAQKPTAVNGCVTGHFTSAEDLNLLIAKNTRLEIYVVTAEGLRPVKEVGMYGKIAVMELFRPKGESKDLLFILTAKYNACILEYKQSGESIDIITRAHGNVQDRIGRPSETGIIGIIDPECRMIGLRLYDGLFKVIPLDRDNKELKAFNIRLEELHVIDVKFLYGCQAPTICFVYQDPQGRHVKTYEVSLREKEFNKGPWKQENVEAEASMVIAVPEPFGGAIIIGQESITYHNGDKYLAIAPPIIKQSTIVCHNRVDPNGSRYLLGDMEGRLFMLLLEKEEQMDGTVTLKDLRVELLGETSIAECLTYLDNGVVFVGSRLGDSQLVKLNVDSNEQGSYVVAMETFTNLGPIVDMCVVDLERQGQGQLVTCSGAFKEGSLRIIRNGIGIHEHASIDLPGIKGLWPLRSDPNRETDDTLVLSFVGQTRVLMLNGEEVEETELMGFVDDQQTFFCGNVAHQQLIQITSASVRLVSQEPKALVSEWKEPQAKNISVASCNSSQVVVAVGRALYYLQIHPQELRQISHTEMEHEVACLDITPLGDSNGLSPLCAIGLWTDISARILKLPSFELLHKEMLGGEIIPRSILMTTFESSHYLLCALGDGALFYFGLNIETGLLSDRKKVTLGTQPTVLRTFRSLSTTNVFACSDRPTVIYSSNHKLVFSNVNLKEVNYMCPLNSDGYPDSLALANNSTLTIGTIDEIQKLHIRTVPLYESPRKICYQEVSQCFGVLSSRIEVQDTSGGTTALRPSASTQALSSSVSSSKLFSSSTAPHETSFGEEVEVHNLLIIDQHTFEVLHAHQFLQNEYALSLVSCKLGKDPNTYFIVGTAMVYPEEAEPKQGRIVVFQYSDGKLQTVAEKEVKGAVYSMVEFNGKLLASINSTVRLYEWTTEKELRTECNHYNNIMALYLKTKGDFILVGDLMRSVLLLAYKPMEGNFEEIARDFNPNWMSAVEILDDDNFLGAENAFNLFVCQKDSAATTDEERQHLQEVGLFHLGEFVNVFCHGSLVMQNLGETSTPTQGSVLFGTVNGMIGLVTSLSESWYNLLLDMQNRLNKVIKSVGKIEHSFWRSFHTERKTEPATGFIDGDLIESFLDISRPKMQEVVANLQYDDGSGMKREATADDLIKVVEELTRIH

SMILES | GCK inhibition of probe binding (KiNativ) (GCK) | YES1: ternary complex formation with CRBN versus degradation [1, 2] | enriched proteins in the CRBN AP-MS [1] | IRAK1: ternary complex formation with CRBN versus degradation [1, 2] | LYN: ternary complex formation with CRBN versus degradation [1, 2]
Cc1ccc(NC(=O)c2cccc(C(F)(F)F)c2)cc1N1Cc2cnc(Nc3ccc(N4CCN(Cc5cn(CCCCCOc6cccc7c6C(=O)N(C6CCC(=O)NC6=O)C7=O)nn5)CC4)nc3)nc2N(C)C1=O (stereo not shown) [DB0646, N-(3-(7-((6-(4-((1-(5-((2-(2,6-Dioxopiperidin-3-yl)-1,3-dioxoisoindolin-4-yl)oxy)pentyl)-1H-1,2,3-triazol-4-yl)methyl)piperazin-1-v)pyridin-3-yl)amino)-1-methyl-2-oxo-1,4-dihydropyrimido[4,5-d]pyrimidin-3(2H)-yl)-4-methylphenyl)-3-(trifluoromethyl)benzamide] | 58 % I | complex formation and degradation are sometimes detected together | fewer enriched proteins |  | 
Cc1ccc(C(=O)Nc2ccc(CN3CCN(CCCOCCOCCOCCNC(=O)COc4cccc5c4C(=O)N(C4CCC(=O)NC4=O)C5=O)CC3)c(C(F)(F)F)c2)cc1C#Cc1cnc2cccnn12 (stereo not shown) [SB1-G-187, N-(4-((4-(1-((2-(2,6-dioxopiperidin-3-yl)-1,3-dioxoisoindolin-4-yl)oxy)-2-oxo-6,9,12-trioxa-3-azapentadecan-15-yl)piperazin-1-yl)methyl)-3 (trifluoromethyl)phenyl)-3-(imidazo[1,2-b]pyridazin-3-ylethynyl)-4-methylbenzamide] | 94 % I | complex formation and degradation are sometimes detected together |  | complex formation and degradation are sometimes detected together | complex formation and degradation are sometimes detected together
CC(C)S(=O)(=O)c1ccccc1Nc1nc(Nc2ccc(N3CCN(CCOCCNC(=O)CNc4cccc5c4C(=O)N(C4CCC(=O)NC4=O)C5=O)CC3)cc2)ncc1Cl (stereo not shown) [SK-3-91] | 50 % I | complex formation does not predict degradation | fewer enriched proteins |  | 

Reference: patent US20240269139A1, “COMPOUNDS FOR TARGETED PROTEIN DEGRADATION OF KINASES” (DANA-FARBER CANCER INSTITUTE, INC., priority 2020, published 2024)
